Columns and labels:
[1] = tested on: H12.1 germ cell tumor, 1411HP germ cell tumor, A2780 ovarian carcinoma, HT29 colon carcinoma, DLD1 colon carcinoma, HCT8 colon carcinoma; experiment: SRB-cytotoxicity assay in a panel of tumor cell lines; type: cell-based, human; conditions: H12.1, 1411HP
Protocol: The cytotoxic activity of 5b was established by standard colorimetric tests (SRB- and MTT-assays) against various tumor cell lines of different entities. For the SRB cytotoxicity assay, dose-response curves of the testicular germ cell tumor cell lines exposed to drug concentrations of 0.001-10 μM were established using the sulforhodamine-B (SRB) microcuiture colorimetric assay (Papazisis et al. Optimization of the sulforhodamine B colorimetric assay. J. Immunol. Methods 1997, 208, 151-158) and performed as described in: Müller et al. Failure of activation of caspase-9 induces a higher threshold for apoptosis and cisplatin resistance in testicular cancer. Cancer Res. 2003, 63, 513-521. Briefly, cells were seeded into 96-well plates on day 0, at cell densities previously determined to ensure exponential cell growth during the period of the experiment. On day 1, cells were treated with the drugs dissolved in medium to give the appropriate concentrations for indicated times and the percentage of surviving cells relative to untreated controls was determined on day 5.
The compounds 5b, 6b, 5f and 6f as well as the reference compound 25f (Wang et al.) were furthermore subjected to an SRB-cytotoxicity assay in a panel of tumor cell lines (H12.1 germ cell tumor, 1411HP germ cell tumor, A2780 ovarian carcinoma, HT29 colon carcinoma, DLD1 colon carcinoma, HCT8 colon carcinoma).

[2] = Toxicity / tolerability in mice; type: in vivo
Protocol: Prior to testing compound 5b, healthy animals of this type were treated with an ascending range of doses of 5b in order to establish a toxicity profile. […] Suitable dosages were then administered in further tests in a nude mouse xenograft model of a pair of germ cell tumor cell lines, the chemoresistant cell line 1411HP and the chemosensitive cell line H12.1. These cell lines retain their individual in vitro chemosensitivities to cisplatin when grown as xenograft tumors and so may serve as a model of the clinical situation of resistance to chemotherapy (Mueller et al. Cancer Res. 2003; Mueller et al. Tumor Biol. 2006).
Compounds 5b, 6b and 6f were also tested in terms of feasibility of oral administration. Mice received a single dose of 40 mg/kg body weight of 5b, 6b or 6f, respectively. […] Then compounds 6b or 6f were given peroral as dual-dose application on two consecutive days in accordance to the i.p. treatment scheme used for the regression trials but with a 2-fold higher dose of 2×40 mg/kg body weight.

[3] = tested on: HT-29 colon carcinoma cells; experiment: MTT cell growth inhibition, HT-29; type: cell-based, human; conditions: for IC50 concentration: combretastatin A-4 resistant HT-29 cells; for cytotoxicity (comparison): multi-drug resistant HT-29 colon cancer cells
Protocol: The effects of the compounds 5b, 6b, 8a, and 8e according to the present invention and of the reference compound 25f (Wang et al., J. Med. Chem. 2002, 45, 1697-1711) on cells of the following human tumor cell lines were evaluated: 518A2 melanoma, HL-60 leukemia, HT-29 colon carcinoma, KB-V1/Vbl cervical carcinoma, and MCF-7/Topo breast carcinoma.
The HL-60 cells were obtained from the German Collection of Biological Material (DSMZ), Braunschweig, Germany; the human 518A2 melanoma cells as well as the testicular germ cell tumor cell lines H12.1 and 1411HP were cultured in the department of oncology and hematology, Medical Faculty of the Martin-Luther University, Halle, Germany; the KBV1/Vbl and the MCF-7/Topo cells were obtained from the Institute of Pharmacy of the University Regensburg, Germany; and the colon HT-29 cells from the University Hospital Erlangen, Germany. The HL-60 and the HT-29 cells were grown in RPMI-1640 medium supplemented with 10% fetal calf serum (FCS), 100 IU/mL penicillin G, 100 μg/mL streptomycin sulfate, 0.25 μg/mL amphotericin B and 250 μg/mL gentamycine (all from Gibco, Egenstein, Germany). The 518A2 and the KB-V1/Vbl cells were cultured in Dulbecco's Modified Eagle Medium (D-MEM, Gibco) containing 10% FCS, 100 IU/mL penicillin G, 100 μg/mL streptomycin sulfate, 0.25 μg/mL amphotericin B and 250 μg/mL gentamycine. The MCF-7/Topo cells were grown in E-MEM medium (Sigma) supplemented with 2.2 g/L NaHCO3, 110 mg/L sodium pyruvate and 5% FCS. The cells were maintained in a moisture-saturated atmosphere (5% CO2) at 37° C. in 75-mL culture flasks (Nunc, Wiesbaden, Germany). They were serially passaged following trypsinisation by 0.05% trypsin/0.02% EDTA (PAA laboratories, Clbe, Germany). Mycoplasma contamination was routinely monitored, and only mycoplasma-free cultures were used.
MTT [3-(4,5-dimethylthiazol-2-yl)-2,5-diphenyltetrazolium bromide](ABCR) was used to identify viable cells which reduce it to a violet formazan (Mosmann, J. Immunol. Methods 1983, 65, 55-63). HL-60 leukemia cells (5×10^5/mL), and cells (5×10^4/mL) of 518A2 melanoma, HT-29 colon, KB-V1/Vbl cervix and MCF-7/Topo breast carcinoma were seeded out in 96-well tissue culture plates and cultured for 24 h. Incubation (5% CO2, 95% humidity, 37° C.) of the cells following treatment with the test compounds was continued for 24, 48 or 72 h. Blank and solvent controls were treated identically. MTT in phosphate buffered saline (5 mg/mL) was added to a final concentration of 0.05% (HL-60, 518A2) or 0.1% (HT-29, KB-V1/Vbl, MCF-7/Topo). After 2 h the formazan precipitate was dissolved in 10% sodium dodecylsulfate in DMSO containing 0.6% acetic acid in the case of the HL-60 cells. For the adherent 518A2, KB-V1/Vbl, MCF-7/Topo and HT-29 cells the microplates were swiftly turned to discard the medium before adding the solvent mixture. The microplates were gently shaken in the dark for 30 min and absorbance at 570 nm and 630 nm (background) was measured with an ELISA plate reader. All experiments were carried out in quadruplicate; the percentage of viable cells was calculated as the mean±SD with controls set to 100%.

HL-60 cells = experiment: Mitochondrial membrane assay (JC-1), HL-60; type: cell-based, human; conditions: 5 μM, red/green fluorescence ratio relative to untreated controls (100%), mean ± SD
Protocol: Values represent means of four independent experiments±standard deviation.
Changes in mitochondrial membrane potential were determined by the Mitochondrial Membrane Detection Kit (Stratagene, La Jolla, Calif., USA) according to the manufacturer's procedure. 72 h following treatment with 5 μM of the test compounds, cell samples were centrifuged at 400 g for 5 min. The pellets were resuspended in 500 μL diluted JC-1 solution, incubated at 37° C. for 15 min (HL-60) and then centrifuged again for 5 min at 400 g. After washing, the pellets were resuspended in 100 μL PBS and transferred into the wells of a black 96-well plate. The red (λex=585 nm, λem=590 nm) and green (λex=510 nm, λem=527 nm) fluorescence intensities were measured and their ratio was calculated.

[4] = tested on: 1411HP germ cell tumor xenografts; experiment: Nude mouse xenograft model of resistant 1411HP; type: in vivo; conditions: 60 mg/kg peroral; 24 h

In the case of `COc1ccc(-c2c(-c3cc(Cl)c(OC)c(OC)c3)ncn2C)cc1N` [compound 5b, 1-methyl-5-(3-amino-4-methoxyphenyl)-4-(3-chloro-4,5-dimethoxyphenyl)-imidazole], the “in vitro cytotoxicity compared to 25f” value [1] is reported as “superior activity as compared to compound 25f”, the toxicity profile ([2]; healthy mice, ascending range of doses) is reported as “very well tolerated by the mice even at relatively high concentrations” and the “toxicity after oral administration” value ([2]; single dose 40 mg/kg oral) is reported as “No signs of toxicity were observed”. For the same compound, the IC50 concentration [3] was “single-digit nanomolar range” and the “cytotoxicity (comparison)” value [3] was “able to overcome the drug resistance in these cancer cells in vitro”.

For `COc1ccc(-c2c(-c3cc(Br)c(OC)c(OC)c3)ncn2C)cc1N` [compound 6b, 1-methyl-5-(3-amino-4-methoxyphenyl)-4-(3-bromo-4,5-dimethoxyphenyl)-imidazole], the “in vitro cytotoxicity compared to 25f” value [1] was “superior activity as compared to compound 25f”, the “Intact mitochondria [%] in HL-60 cells after 72 h” value (HL-60 cells) was 66 ± 10% and the “toxicity after oral administration” value ([2]; peroral dual-dose 2×40 mg/kg on two consecutive days) was “well tolerated and induced only a transient and marginal loss of body weight”. The “toxicity after oral administration” value ([2]; single dose 40 mg/kg oral) was “No signs of toxicity were observed”, the “toxicity after oral administration” value ([2]; single dose 60 mg/kg peroral) was “No signs of toxicity were observed” and the “vascular disrupting effect after oral administration” value [4] was “occurred to same extent as seen after i.p. application”. The IC50 concentration [3] was “single-digit nanomolar range” and the “cytotoxicity (comparison)” value [3] was “able to overcome the drug resistance in these cancer cells in vitro”.
